Assay results reported in US20110311649A1, “NOVEL IMIDAZOLE DERIVATIVES” (SYNGENTA CROP PROTECTION, INC., priority 2007, published 2011).

What was measured:
Format in all cases: in vivo
[1] = system: Alternaria solani; experiment: Alternaria solani/Tomato/Preventive (action against Alternaria on tomato); settings: 96 h, preventive spray, tomato plants cv. Roter Gnom, assessed 4 days after inoculation, read-out: inhibit fungal infestation
Procedure: (§1) Alternaria solani/Tomato/Preventive (Action Against Alternaria on Tomato) 4 weeks old tomato plants cv. Roter Gnom are treated with the formulated test compound in a spray chamber. Two days after application tomato plants are inoculated by spraying a spore suspension on the test plants. After an incubation period of 4 days at 22° C./18° C. and 95% r. h. in a greenhouse the disease incidence is assessed.

[2] = system: Pyrenophora teres (Helminthosporium teres); experiment: Pyrenophora teres (Helminthosporium teres)/Barley/Preventive (action against net blotch on barley); settings: 96 h, preventive spray, barley plants cv. Regina, assessed 4 days after inoculation, read-out: inhibit fungal infestation
Procedure: Pyrenophora teres (Helminthosporium teres)/Barley/Preventive (Action Against Net Blotch on Barley) 1-week-old barley plants cv. Regina are treated with the formulated test compound in a spray chamber. Two days after application barley plants are inoculated by spraying a spore suspension (2.6×10^4 conidia/ml) on the test plants. After an incubation period of 4 days at 20° C. and 95% r. h. the disease incidence is assessed.

[3] = system: Botrytis cinerea; experiment: Botrytis cinerea/Tomato/Preventive (action against Botrytis on tomato); settings: 72 h, preventive spray, tomato plants cv. Roter Gnom, assessed 3 days after inoculation, read-out: inhibit fungal infestation
Procedure: as §1, with “Botrytis cinerea/Tomato/Preventive (Action” for “Alternaria solani/Tomato/Preventive (Action”, “Against Botrytis” for “Against Alternaria”, “of 3” for “of 4”, “at 20°” for “at 22° C./18°”

[4] = system: Magnaporthe grisea (Pyricularia oryzae); experiment: whole plant or invertebrate; settings: 144 h, read-out: inhibit fungal infestation
[5] = system: Septoria tritici; experiment: Septoria tritici/Wheat/Preventive (action against Septoria leaf spot on wheat); settings: Zymoseptoria tritici, preventive spray, wheat plants cv. Riband, assessed 16-18 days after inoculation, read-out: inhibit fungal infestation
Procedure: Septoria tritici/Wheat/Preventive (Action Against Septoria Leaf Spot on Wheat) 2 weeks old wheat plants cv. Riband are treated with the formulated test compound in a spray chamber. One day after application wheat plants are inoculated by spraying a spore suspension (10^6 conidia/ml) on the test plants. After an incubation period of 1 day at 22° C./21° C. and 95% r. h. plants are kept at 22° C./21° C. and 70% r.h. in a greenhouse. The disease incidence is assessed 16-18 days after inoculation.

[6] = system: Uncinula necator; experiment: Uncinula necator/Grape/Preventive (action against powdery mildew on grape); settings: Erysiphe necator, 168 h, preventive spray, grape seedlings cv. Gutedel, assessed 7 days after inoculation, read-out: inhibit fungal infestation
Procedure: Uncinula necator/Grape/Preventive (Action Against Powdery Mildew on Grape) 5 weeks old grape seedlings cv. Gutedel are treated with the formulated test compound in a spray chamber. One day after application grape plants are inoculated by shaking plants infected with grape powdery mildew above the test plants. After an incubation period of 7 days at 24° C./22° C. and 70% r. h. under a light regime of 14/10 h (light/dark) the disease incidence is assessed.

[7] = system: Puccinia recondita; experiment: Puccinia recondita/Wheat/Preventive (action against brown rust on wheat); settings: 264 h, preventive spray, wheat plants cv. Arina, assessed 11 days after inoculation, read-out: inhibit fungal infestation
Procedure: Puccinia recondita/Wheat/Preventive (Action Against Brown Rust on Wheat) 1 week old wheat plants cv. Arina are treated with the formulated test compound in a spray chamber. One day after application wheat plants are inoculated by spraying a spore suspension ([…] uredospores/ml) on the test plants. After an incubation period of 1 day at 20° C. and 95% r. h. plants are kept for 10 days 20° C./18° C. (day/night) and 60% r.h. in a greenhouse. The disease incidence is assessed 11 days after inoculation.

Measured: inhibition at 200 ppm

Fc1cc(F)c(-c2c(Cl)nc(Cl)n2-c2ccc(Cl)nc2)c(F)c1 [I.j.209, 2-Chloro-5-[2,4-dichloro-5-(2,4,6-trifluoro-phenyl)-imidazol-1-yl]-pyridine]
not listed: [6] | [7]
≥ 80%: all other assays above

Cc1nc(Cl)c(-c2c(F)cc(F)cc2F)n1-c1ccc(Cl)nc1 [I.j.210, 2-Chloro-5-[4-chloro-2-methyl-5-(2,4,6-trifluoro-phenyl)-imidazol-1-yl]-pyridine]
≥ 80%: all assays above

Cc1ccc(-n2c(C)nc(Cl)c2-c2c(F)cc(F)cc2F)cn1 [I.j.225, 5-[4-Chloro-2-methyl-5-(2,4,6-trifluoro-phenyl)-imidazol-1-yl]-2-methyl-pyridine]
≥ 80%: [6] | [1] | [4] | [5]

Fc1cc(F)c(-c2c(Cl)nc(Cl)n2-c2cnc3ccccc3c2)c(F)c1 [I.j.269, 3-[2,4-dichloro-5-(2,4,6-trifluoro-phenyl)-imidazol-1-yl]-quinoline]
≥ 80%: [6] | [1] | [2] | [5]

Cc1nc(Cl)c(-c2c(F)cc(F)cc2F)n1-c1cnc2ccccc2c1 [I.j.270, 3-[4-chloro-2-methyl-5-(2,4,6-trifluoro-phenyl)-imidazol-1-yl]-quinoline]
≥ 80%: all assays above

COc1cc(F)c(-c2c(Cl)nc(C)n2-c2ccc(Cl)nc2)c(F)c1 [I.m.210, 2-Chloro-5-[4-chloro-5-(2,6-difluoro-4-methoxy-phenyl)-2-methyl-imidazol-1-yl]-pyridine]
≥ 80%: all assays above

COc1cc(F)c(-c2c(Cl)nc(C)n2-c2ccc(OC)nc2)c(F)c1 [I.m.220, 5-[4-Chloro-5-(2,6-difluoro-4-methoxy-phenyl)-2-methyl-imidazol-1-yl]-2-methoxy-pyridine]
≥ 80%: all assays above

COc1cc(F)c(-c2c(Cl)nc(C)n2-c2ccc(C)nc2)c(F)c1 [I.m.225, 5-[4-Chloro-5-(2,6-difluoro-4-methoxy-phenyl)-2-methyl-imidazol-1-yl]-2-methyl-pyridine]
≥ 80%: all assays above
